How the values were obtained:
[1] = test system: feline infectious peritonitis virus (FIPV); test: Inhibitory activity against feline coronavirus (FIPV) in CRFK cells, CellTiter-Glo readout; type: cell-based; settings: for EC50: Alphacoronavirus 1, FIPV 0.1 MOI/well, 72 h, CellTiter-Glo; for inhibition of replication of FIPV in vitro: summary of Table 1
Method: CRFK cells in a good growth state were seeded into a 96-well assay plate. When the cells grew to 80%-90% confluence, feline coronavirus (FIPV) (0.1 MOI/well) and varying concentrations of the test compounds were added to the assay plate. Meanwhile, a cell control (cells, no compound treatment or viral infection) and a virus control (cells infected with virus, no compound treatment) were set. The final concentration of DMSO in the culture solution was 1%. After incubation at 37° C. for 72 h, the cells were treated with a CellTiter-Glo luminescent cell viability assay reagent (Promega, Madison, WI, USA). The half-maximal effective concentration (EC50) values of the compounds for virus inhibition were calculated using the GraphPad prism 7 software.

[2] = Pharmacokinetic evaluation in rats; type: in vivo; settings: male, SD; for AUC(0-inf) / AUC(0-t) / Cmax: nucleoside (compound 4) in rat plasma
Method: Male SD rats were fasted before the experiment (except for the intravenous group, which was not fasted), with free access to water, and were fed uniformly 2 h after administration. Compound 4 was administered by intravenous injection at a dose of 2.0 mg/kg (n=3) and administered intragastrically at a dose of 10.0 mg/kg (n=3); compound 53 was administered by intravenous injection at a dose of 5.0 mg/kg (n=3) and administered intragastrically at a dose of 20.0 mg/kg (n=3); the administration vehicle was 5% DMSO+5% ethanol+40% PEG300+50% saline. After the administration, 0.2-mL blood samples were collected via the jugular vein at different time points. Each blood sample was then placed into a heparin sodium anticoagulation tube, gently mixed uniformly, and centrifuged at 2000 g for 10 min. Plasma was isolated and frozen in a refrigerator at −70° C. for later analysis. The concentration of nucleoside (compound 4) in the plasma was determined by the LC-MS-MS method, and pharmacokinetic parameters were calculated.

CC(C)C(=O)O[C@H]1[C@@H](O)[C@](C#N)(c2ccc3c(N)ncnn23)O[C@@H]1CO [Compound 20]
EC50 [1]: 0.69 µM
inhibition of replication of FIPV in vitro [1]: could inhibit the replication

[2H]c1cc([C@]2(C#N)O[C@H](COC(C)=O)[C@@H](O)[C@H]2O)n2ncnc(N)c12 [Compound 52]
EC50 [1]: 1.3 µM

[2H]c1cc([C@]2(C#N)O[C@H](COC(C)=O)[C@@H](OC(C)=O)[C@H]2OC(C)=O)n2ncnc(N)c12 [Compound 40]
EC50 [1]: 1.05 µM

N#C[C@@]1(c2ccc3c(N)ncnn23)O[C@H](CO)[C@@H](O)[C@H]1O [GS-441524, reference compound]
EC50 [1]: 2.29 µM

[2H]c1cc([C@]2(C#N)O[C@H](COC(=O)C(C)C)[C@@H](OC(=O)C(C)C)[C@H]2OC(=O)C(C)C)n2ncnc(N)c12 [Compound 42]
EC50 [1]: 1.63 µM

CC(C)C(=O)OC[C@H]1O[C@@](C#N)(c2ccc3c(N)ncnn23)[C@H](O)[C@@H]1O [Compound 6]
EC50 [1]: 0.65 µM
inhibition of replication of FIPV in vitro [1]: could inhibit the replication

[2H]c1cc([C@]2(C#N)O[C@H](COC(=O)C(CC)CC)[C@@H](O)[C@H]2O)n2ncnc(N)c12 [Compound 32]
EC50 [1]: 43.8 µM

N#C[C@@]1(c2ccc3c(N)ncnn23)O[C@H](CO)[C@H]2OC(=O)O[C@H]21 [Compound 25]
EC50 [1]: 2.75 µM

[2H]c1cc([C@]2(C#N)O[C@H](COC(=O)C(C)C)[C@H]3OC(=O)O[C@H]32)n2ncnc(N)c12 [Compound 53]
EC50 [1]: 0.66 µM
inhibition of replication of FIPV in vitro [1]: could inhibit the replication

[2H]c1cc([C@]2(C#N)O[C@H](COC(=O)CC)[C@@H](O)[C@H]2O)n2ncnc(N)c12 [Compound 29]
EC50 [1]: 1.1 µM

[2H]c1cc([C@]2(C#N)O[C@H](COC(=O)C(C)C)[C@@H](O)[C@H]2O)n2ncnc(N)c12 [Compound 11]
EC50 [1]: 0.69 µM
inhibition of replication of FIPV in vitro [1]: could inhibit the replication

[2H]c1cc([C@]2(C#N)O[C@H](CO)[C@@H](O)[C@H]2O)n2ncnc(N)c12 [Compound 4]
EC50 [1]: 2.34 µM
bioavailability ([2]; plasma, rat, nucleoside (compound 4) measured, po 10.0 mg/kg vs iv 2.0 mg/kg, read-out: F (oral bioavailability)): 21.7%
AUC(0-inf) ([2]; iv 2.0 mg/kg): 1790 ng·h/mL
AUC(0-t) ([2]; iv 2.0 mg/kg): 1720 ng·h/mL
Cmax ([2]; iv 2.0 mg/kg): 1630 ng/mL
AUC(0-inf) ([2]; po 10.0 mg/kg): 1910 ng·h/mL
AUC(0-t) ([2]; po 10.0 mg/kg): 1870 ng·h/mL
Cmax ([2]; po 10.0 mg/kg): 246 ng/mL

CC(C)C(=O)OC[C@H]1O[C@@](C#N)(c2ccc3c(N)ncnn23)[C@H](OC(=O)C(C)C)[C@@H]1OC(=O)C(C)C [Compound 27]
EC50 [1]: 1.59 µM
